Measurements taken from patent publication US20250059198A1, “BRM DEGRADING COMPOUNDS AND ASSOCIATED METHODS OF USE” (Arvinas Operations, Inc., priority 2021, published 2025).

Molecular target: T1, BRM (Homo sapiens, UniProt P51531)
T1 construct: Western Blot Screen of BRM Degradation in SW1573 Cells; endogenous in cells; host or cells: SW1573 cells
Test: BRM degradation (Dmax and DC50) in SW1573 cells, Western blot screen / In-Cell Western screen
Format: cell-based
Conditions: overnight (18-20 hours) treatment; for Dmax: read-out: Dmax (%)** (% degraded)
Protocol: (§1) To assess BRM degradation (Dmax and DC50) cells were seeded at 8000/well in 96-well black/clear-bottom plates in 180 μL DMEM growth media (containing 1% pen-strep, 1% HEPES and 10% FBS) per well. Plates were incubated overnight to allow adhesion. The next morning cells were treated by adding 20 μL of 10× target compound concentration (1% DMSO) to appropriate wells and returned to incubator for overnight (18-20 hours). The final DMSO concentration was 0.1%.
For lysing, adherent cells were washed once with 100 μL of DPBS. Cells were lysed in 40 μL of 1×RIPA+HALT protease inhibitor on ice for 10 minutes and frozen until use at −80° C. Thawed lysates were cleaned by filtration in 1.2 µm filter plates, or alternatively, were spun clean at 2300 g at 4° C. for 30 minutes.
For blotting, for each Western sample 30 μL of lysate was added to 10 μL of 4× LDS sample buffer, then denatured at 95° C. for 5 minutes in the thermal cycler and placed on ice. Samples were loaded on 4-15% Tris/Glycine gels and run for 25 minutes at 250 constant volts in 1× Tris/Glycine buffer with 4 μL of ladder and 12 μL of each sample loaded for each blot. Protein was transferred from gels to NC with BioRad Turbo dry-transfer unit with the Turbo/midi default program. All blots were rinsed with ddH2O and blocked for 1 hour at room temperature in 5% BSA in TBST (0.1%) on rocker. Blots were exposed to primary antibody in 5% BSA in TBST (0.1%) overnight at 4° C. on rocker (1:1000 for BRM (Cell Signaling Tech. cat #11966) and 1:2000 for alpha-tubulin (Cell Signaling Tech. cat #3873), a control protein. Blot was washed with TBST (0.1%) three times for 5 minutes on rocker at room temperature. Secondary antibody was added, and blots were incubated on a room temperature rocker for 1 hour with 1:18,000 anti-rabbit-HRP and/or anti-mouse-HRP in 5% BSA in TBST (0.1%). Blots were washed three times in TBST (0.1%) for 5 minutes at room temperature on the rocker. Signal was developed with Femto Maximum Sensitivity substrate for 4 minutes and blots read on ChemiDoc™.
as §1, with “DC50),” for “DC50)”, “10×” for “10× target”, “compound” for “compound concentration”
For processing, the plates were removed from incubator, the media was removed, and immediately 200 μL of cold (4° C.) DPBS was added to all wells. DPBS was then removed, and 50 μL of 4% paraformaldehyde (PFA) in DPBS (4° C.) was added to all wells, and the plates were incubated at room temperature for 20 minutes. PFA was then removed, and 200 μL of TBS-T containing 0.5% Triton X-100 was added to all wells, and the plates were incubated at room temperature for 30 minutes. TBS-T containing 0.5% Triton X-100 was then removed, and 50 μL of Li-Cor blocking solution was added, and the plates were incubated at room temperature for a minimum of one hour. The blocking solution was removed, and 50 μL of Li-Cor blocking solution containing primary antibody cocktail was added (1:1000 for BRM (Cell Signaling Tech. cat #11966) and 1:2000 for alpha-tubulin (Sigma cat #T6074), a control protein. Plates were then placed in cold room until the next day.
The next day plates were washed three times with TBS-T, 200 μL per well. Fifty […] of secondary antibody cocktail in LI-COR blocking solution (anti-rabbit_800 nm and anti-mouse_680 nm) was added to all wells (diluted 1:5000). The plates were incubated at room temperature for at least one hour while protected from light. The plates were washed twice with TBS-T, 200 μL per well.
To read each plate TBS-T was removed, and each plate was inverted tapped on a paper towel. […]

T1 sequence (P51531 whole entry): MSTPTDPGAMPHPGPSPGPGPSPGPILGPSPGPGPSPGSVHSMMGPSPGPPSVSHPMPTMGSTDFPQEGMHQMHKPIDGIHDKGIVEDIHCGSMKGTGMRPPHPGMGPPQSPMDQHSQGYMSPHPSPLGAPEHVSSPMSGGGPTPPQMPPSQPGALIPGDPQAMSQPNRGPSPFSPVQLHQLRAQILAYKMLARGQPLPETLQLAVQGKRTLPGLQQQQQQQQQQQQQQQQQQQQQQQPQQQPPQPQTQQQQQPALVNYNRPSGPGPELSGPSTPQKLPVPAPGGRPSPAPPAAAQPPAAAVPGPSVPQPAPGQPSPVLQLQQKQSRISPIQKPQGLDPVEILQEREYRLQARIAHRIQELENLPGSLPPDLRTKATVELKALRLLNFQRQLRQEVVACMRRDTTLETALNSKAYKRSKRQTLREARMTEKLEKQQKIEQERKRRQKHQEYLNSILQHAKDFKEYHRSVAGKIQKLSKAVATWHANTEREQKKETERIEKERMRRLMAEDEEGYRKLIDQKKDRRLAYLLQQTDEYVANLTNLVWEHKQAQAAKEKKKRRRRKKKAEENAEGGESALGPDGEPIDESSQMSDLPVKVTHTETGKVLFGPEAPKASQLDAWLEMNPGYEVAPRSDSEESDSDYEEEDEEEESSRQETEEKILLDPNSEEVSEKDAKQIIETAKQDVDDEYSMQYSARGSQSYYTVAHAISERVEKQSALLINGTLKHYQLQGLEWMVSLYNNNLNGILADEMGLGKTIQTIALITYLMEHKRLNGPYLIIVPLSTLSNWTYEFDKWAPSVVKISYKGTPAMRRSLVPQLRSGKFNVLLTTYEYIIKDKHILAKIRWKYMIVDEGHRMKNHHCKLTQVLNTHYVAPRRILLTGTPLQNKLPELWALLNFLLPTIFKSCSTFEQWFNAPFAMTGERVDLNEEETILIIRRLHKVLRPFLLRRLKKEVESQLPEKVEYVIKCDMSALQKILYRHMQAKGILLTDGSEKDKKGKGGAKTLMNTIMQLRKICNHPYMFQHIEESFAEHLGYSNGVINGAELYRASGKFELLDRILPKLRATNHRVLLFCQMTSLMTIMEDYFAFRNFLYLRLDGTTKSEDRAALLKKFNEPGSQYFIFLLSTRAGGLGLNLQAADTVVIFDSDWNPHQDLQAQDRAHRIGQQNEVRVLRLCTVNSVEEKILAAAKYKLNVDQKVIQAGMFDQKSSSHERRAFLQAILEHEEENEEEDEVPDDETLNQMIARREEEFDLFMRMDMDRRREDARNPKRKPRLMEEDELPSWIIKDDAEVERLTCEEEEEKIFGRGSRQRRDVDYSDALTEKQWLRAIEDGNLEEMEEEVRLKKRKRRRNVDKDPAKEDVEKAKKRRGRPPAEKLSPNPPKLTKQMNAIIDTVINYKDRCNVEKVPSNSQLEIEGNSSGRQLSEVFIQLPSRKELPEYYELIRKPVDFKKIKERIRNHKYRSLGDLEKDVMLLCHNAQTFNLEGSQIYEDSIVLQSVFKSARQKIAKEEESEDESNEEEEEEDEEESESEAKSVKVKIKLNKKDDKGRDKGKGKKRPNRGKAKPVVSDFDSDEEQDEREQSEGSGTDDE

SMILES	DC50	Dmax
Cc1ncsc1-c1ccc([C@H](C)NC(=O)[C@@H]2C[C@@H](O)CN2C(=O)[C@@H](c2cc(OCCN3CCC(OC(=O)N4CCN(c5cc(-c6ccccc6O)nnc5N)CC4)CC3)no2)C(C)C)cc1 [Compound 64, 1-[2-({5-[(2R)-1-[(2S,4R)-4-hydroxy-2-{[(1S)-1-[4-(4-methyl-1,3-thiazol-5-yl)phenyl]ethyl]carbamoyl}pyrrolidin-1-yl]-3-methyl-1-oxobutan-2-yl]-1,2-oxazol-3-yl}oxy)ethyl]piperidin-4-yl 4-[3-amino-6-(2-hydroxyphenyl)pyridazin-4-yl]piperazine-1-carboxylate]	2.5 to 10 nM	> 75%
CC(C)[C@H](C(=O)N1C[C@H](O)C[C@H]1C(=O)N[C@@H](C)c1ccc(C#N)cc1)c1cc(O[C@H]2C[C@H](C(C)(C)N3CCC(O[C@H]4C[C@H](Oc5cc(N6C7CCC6CN(c6cc(-c8ccccc8O)nnc6N)C7)ccn5)C4)CC3)C2)no1 [Compound 93, (2S,4R)-N-[(1S)-1-(4-cyanophenyl)ethyl]-4-hydroxy-1-[(2S)-3-methyl-2-{3-[(1r,3r)-3-(2-{4-[(1r,3r)-3-[(4-{3-[3-amino-6-(2-hydroxyphenyl)pyridazin-4-yl]-3,8-diazabicyclo[3.2.1]octan-8-yl}pyridin-2-yl)oxy]cyclobutoxy]piperidin-1-yl}propan-2-yl)cyclobutoxy]-1,2-oxazol-5-yl}butanoyl]pyrrolidine-2-carboxamide]	≥ 30 nM	–
Cc1ncsc1-c1ccc([C@H](C)NC(=O)C2C[C@@H](O)CN2C(=O)[C@@H](c2cc(N3CCC(CN4CC[C@H](Oc5cc(N6C7CCC6CN(c6cc(-c8ccccc8O)nnc6N)C7)ccn5)C(F)(F)C4)CC3)no2)C(C)C)cc1 (stereo in doubt) [Compound 54, (2S,4R)-1-[(2R)-2-[3-(4-{[(4S)-4-[(4-{3-[3-amino-6-(2-hydroxyphenyl)pyridazin-4-yl]-3,8-diazabicyclo[3.2.1]octan-8-yl}pyridin-2-yl)oxy]-3,3-difluoropiperidin-1-yl]methyl}piperidin-1-yl)-1,2-oxazol-5-yl]-3-methylbutanoyl]-4-hydroxy-N-[(1S)-1-[4-(4-methyl-1,3-thiazol-5-yl)phenyl]ethyl]pyrrolidine-2-carboxamide]	2.5 to 10 nM	> 75%
Cc1ncsc1-c1ccc([C@H](C)NC(=O)[C@@H]2C[C@@H](O)CN2C(=O)[C@@H](c2cc(N3CCC(CN4CCC5(CC4)CC(N4CCN(CC6(O)CCN(c7cc(-c8ccccc8O)nnc7N)CC6)CC4)C5)CC3)no2)C(C)C)cc1 [Compound 122, (2S,4R)-1-[(2R)-2-{3-[4-({2-[4-({1-[3-amino-6-(2-hydroxyphenyl)pyridazin-4-yl]-4-hydroxypiperidin-4-yl}methyl)piperazin-1-yl]-7-azaspiro[3.5]nonan-7-yl}methyl)piperidin-1-yl]-1,2-oxazol-5-yl}-3-methylbutanoyl]-4-hydroxy-N-[(1S)-1-[4-(4-methyl-1,3-thiazol-5-yl)phenyl]ethyl]pyrrolidine-2-carboxamide]	< 2.5 nM	> 75%
CC(C)[C@H](C(=O)N1C[C@H](O)C[C@H]1C(=O)N[C@@H](C)c1ccc(C#N)cc1)c1cc(N2CCC(OCCN3CCC(Oc4cc(N5CCN(c6cc(-c7ccccc7O)nnc6N)CC5)ccn4)CC3)CC2)no1 [Compound 154, (2S,4R)-1-[(2S)-2-{3-[4-(2-{4-[(4-{4-[3-amino-6-(2-hydroxyphenyl)pyridazin-4-yl]piperazin-1-yl}pyridin-2-yl)oxy]piperidin-1-yl}ethoxy)piperidin-1-yl]-1,2-oxazol-5-yl}-3-methylbutanoyl]-N-[(1S)-1-(4-cyanophenyl)ethyl]-4-hydroxypyrrolidine-2-carboxamide]	≥ 30 nM	–
CC(C)[C@H](C(=O)N1C[C@H](O)C[C@H]1C(=O)N[C@@H](C)c1ccc(-c2scnc2C#CCOCCOCCOCCOCCOc2cc(N3C4CCC3CN(c3cc(-c5ccccc5O)nnc3N)C4)ccn2)cc1)N1Cc2ccccc2C1=O [Compound 82, (2S,4R)-N-[(1S)-1-[4-(4-{1-[(4-{3-[3-amino-6-(2-hydroxyphenyl)pyridazin-4-yl]-3,8-diazabicyclo[3.2.1]octan-8-yl}pyridin-2-yl)oxy]-3,6,9,12-tetraoxapentadec-14-yn-15-yl}-1,3-thiazol-5-yl)phenyl]ethyl]-4-hydroxy-1-[(2R)-3-methyl-2-(1-oxo-2,3-dihydro-1H-isoindol-2-yl)butanoyl]pyrrolidine-2-carboxamide]	≥ 30 nM	–
Cc1ncsc1-c1ccc([C@H](C)NC(=O)[C@@H]2C[C@@H](O)CN2C(=O)[C@@H](c2cc(N3CCC(CN4CCC5(CC4)CC(N4CCC[C@@](O)(CN6C7CCC6CN(c6cc(-c8ccccc8O)nnc6N)C7)C4)C5)CC3)no2)C(C)C)cc1 [Compound 71, (2S,4R)-1-[(2R)-2-{3-[4-({2-[(3S)-3-({3-[3-amino-6-(2-hydroxyphenyl)pyridazin-4-yl]-3,8-diazabicyclo[3.2.1]octan-8-yl}methyl)-3-hydroxypiperidin-1-yl]-7-azaspiro[3.5]nonan-7-yl}methyl)piperidin-1-yl]-1,2-oxazol-5-yl}-3-methylbutanoyl]-4-hydroxy-N-[(1S)-1-[4-(4-methyl-1,3-thiazol-5-yl)phenyl]ethyl]pyrrolidine-2-carboxamide]	< 2.5 nM	> 75%
Cc1ncsc1-c1ccc([C@H](C)NC(=O)[C@@H]2C[C@@H](O)CN2C(=O)[C@@H](c2cc(N3CCC(CN4CCC(O[C@H]5C[C@H](N6CCC(Cc7cn(-c8cc(-c9ccccc9O)nnc8N)cn7)CC6)C5)CC4)CC3)no2)C(C)C)cc1 [Compound 130, (2S,4R)-4-hydroxy-N-[(1S)-1-[4-(4-methyl-1,3-thiazol-5-yl)phenyl]ethyl]-1-[(2R)-3-methyl-2-{3-[4-({4-[(1r,3r)-3-[4-({1-[3-amino-6-(2-hydroxyphenyl)pyridazin-4-yl]-1H-imidazol-4-yl}methyl)piperidin-1-yl]cyclobutoxy]piperidin-1-yl}methyl)piperidin-1-yl]-1,2-oxazol-5-yl}butanoyl]pyrrolidine-2-carboxamide]	10 to 30 nM	> 75%
Cc1ncsc1-c1ccc([C@H](C)NC(=O)[C@@H]2C[C@@H](O)CN2C(=O)[C@@H](c2cc(N3CCC(CN4CCC(O[C@H]5C[C@H](N6CCC7(CC6)CC(N6C8CCC6CN(c6cc(-c9ccccc9O)nnc6N)C8)C7)C5)CC4)CC3)no2)C(C)C)cc1 [Compound 44, (2S,4R)-4-hydroxy-N-[(1S)-1-[4-(4-methyl-1,3-thiazol-5-yl)phenyl]ethyl]-1-[(2R)-3-methyl-2-{3-[4-({4-[(1r,3r)-3-(2-{3-[3-amino-6-(2-hydroxyphenyl)pyridazin-4-yl]-3,8-diazabicyclo[3.2.1]octan-8-yl}-7-azaspiro[3.5]nonan-7-yl)cyclobutoxy]piperidin-1-yl}methyl)piperidin-1-yl]-1,2-oxazol-5-yl}butanoyl]pyrrolidine-2-carboxamide]	< 2.5 nM	> 75%
CC(C)[C@@H](C(=O)N1C[C@H](O)C[C@H]1C(=O)N[C@@H](C)c1ccc(-c2scnc2C#CCOCCOCCOCCOc2cc(N3C4CCC3CN(c3cc(-c5ccccc5O)nnc3N)C4)ccn2)cc1)N1Cc2ccccc2C1=O [Compound 72, (2S,4R)-N-[(1S)-1-[4-(4-{3-[2-(2-{2-[(4-{3-[3-amino-6-(2-hydroxyphenyl)pyridazin-4-yl]-3,8-diazabicyclo[3.2.1]octan-8-yl}pyridin-2-yl)oxy]ethoxy}ethoxy)ethoxy]prop-1-yn-1-yl}-1,3-thiazol-5-yl)phenyl]ethyl]-4-hydroxy-1-[(2S)-3-methyl-2-(1-oxo-2,3-dihydro-1H-isoindol-2-yl)butanoyl]pyrrolidine-2-carboxamide]	≥ 30 nM	–
